Key:
[1] = Storage stability (HPLC); format: physicochemical; conditions: 5 months in freezer (-20 °C), powder and 5 mM DMSO solution
Experimental: BODIPY PLUS (10 µM) in phosph ate buffer salin e (PBS, white bars) an d phosp hat idy lcho lin e li posom e susp ensi ons (gr ey bars). λ exc: 45 0 nm; λem: 51 0 nm.
V alues pr es ent e d as m ea ns ±S E M ( n= 3) .
Tr p-BODIPY P LU S (-20 °C, solid)
Tr p-BODIPY P LU S (-20 °C, DMSO)
S u p p l emen t ary F i gu re 6 . HP LC tr ac es of T r p-B O DI P Y P LUS aft er 5 m ont hs st or age in t he f r eez er as po wder ( t op) and as 5 mM DMSO s olut i ons ( bot t om ). […]

[2] = Stability analysis of Trp-BODIPY FlAAs under SPPS conditions; conditions: for Stability (purity by HPLC-MS): 70 μM; for Stability (purity by HPLC-MS) / Chemical stability (HPLC-MS): r.t.; for Chemical stability (HPLC-MS): 70 µM;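 for all read-outs here: chemical integrity of the BODIPY-labelled tryptophan amino acids checked after exposure to reagents used in solid-phase peptide synthesis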
Experimental: Next, we studied the stability of Trp‐BODIPY PLUS in TFA and compared it to that of Trp‐BODIPY (Table 2).
Analysis of t he chemical st abilit y of T rp-BO DI PY and T rp-
BODIPY PLUS under conve nt ion al SPPS condit i ons. Amino aci ds were di lut ed w it h
dif f erent rea gent mixt ur es (70 µ M , f inal v olum e 10 0 uL) a nd st irre d at r. t . f or 1 h
( c ondit i ons A-B and E-H) or 5 m i n ( c o ndit i ons C an d D).
Fmoc-T rp -BO DI PY(X)2-OH
En t ry Conditions X = F X = CN

[3] = Solubility: linear regression of HPLC peak area in DMSO and PBS; format: physicochemical; conditions: DMSO and PBS (≤1% DMSO), HPLC-MS with UV detection at 510 nm
Experimental: (§1) S u p p l emen t ary Figure 7. Nor m alized f luoresc ence em is s ion of Trp-BODIPY PLUS ( 50 µ M , buf f er ) at 37° C und er c o nt inu ous l ight ir r adi at ion ( Xe l am p, 20 W ) . λexc: 450 nm; λem: 510 nm . V alues pr es ent e d as m eans ±S D ( n= 6).
(§2) Supplementary Figure 8 . Linear r egr es s ions of t he p eak a bs or b anc e ar ea ( m A U) of T rp-BO DI PY PLUS in DMSO (re d) an d PBS (c ont a ini ng ≤ 1% DM S O , bl ue) at d if f er ent c onc ent r at i ons of t he ami no ac id. Valu es wer e det ermi ned by HPLC-MS us ing UV det ec t ion at 51 0 nm . R2 v alues : 0. 99 9 ( r ed) , 0. 99 4 ( blu e) .
(§3) (also on this page, place not known: time (min) Normalized photostability Normalized fluorescence emission (50 µM, buffer) 37°C under continuous light irradiation (Xe lamp, W) nm; nm. Values presented means±SD (n=6). µM) Peak area (mAU) DMSO) Supplementary 8. regressions the peak absorbance area (mAU) Trp-BODIPY DMSO (red) and (containing ≤1% DMSO, blue) different concentrations the amino acid. Values were determined using detection 510 nm. values: 0.999 (red), 0.994 (blue).)

[4] = Optical properties (absorbance, emission, extinction coefficient); format: physicochemical
Excerpt: Supplementary Figure 3. Det er m inat ion of t he ex t inc t i on c oef f ic i ent of T rp-BO DI PY P LUS in EtOH. V alues pr es ent e d as m eans ±S E M ( n= 6) .
S u p p l emen t ary F i gu re 4 . […]
(also on this page, place not known: 0.0 0.1 0.2 0.3 0.4 0.5 0.6 ε: 87,680 M-1cm-1 R2: 0.98 (µM) Optical density (500 nm) Determination the extinction coefficient Trp-BODIPY Values presented means±SEM (n=6). Wavelength (nm) fluorescence (RFU) Relative Supplementary Figure 4. Representative emission spectra Trp-BODIPY PLUS µM) water (black) and dioxane (green). (n=3).) […]
Sp ectro sco p y mea su rem en ts. O pt ical prop ert ies were me asure d in a Synergy H 1 B ioT ek spect rop hot om et er at t he ind icat ed co ncent rat i ons o n 96 or 38 4-we ll p lat es.
A bs or ba nc e and em is s i on s pec t r a wer e det er m i ned in t he r ange of 400– 700 nm ( ev er y 2 nm). F or liposom e exp erime nt s, phosph at idylc hol ine (P C)-bas ed li posom es wer e pur c has ed f r om Lipos om a, dilut ed in PBS, and t r ans f er r ed int o a blac k f lat -bot t om 96-well pl at e f or opt ical measur ement s. […]
Cel l exp eri men t s. W ork wit h hum an per iph eral b loo d leuk ocyt es comp lie d wit h al l releva nt et hical r egu lat io ns and inf orme d conse nt was obt a ine d. T he st udy prot oco l was approv ed by t he Medica l Regi ona l Et hics Commit t ee ( 21-EMREC - 04 1) at t he Univers ity of Edinb urgh. H uman blo od le ukocytes w ere iso late d from hea lthy volunt e ers. Brief ly, whole b loo d was ant i-c o agu lat ed w it h s odium c it r at e [ 0. 4% ( w/ v ) f inal c onc ent r at io n] and c ent r if ug ed at 350 g for 20 m i n. P lat elet-ric h plasma w as r em ov ed and aut o log ous s er um was ge ner at e d by r ec alc if ic at ion wit h CaC l2 ( 20 m M f inal co ncent rat i on). […] 5 %/ 63%/ 7 2. 9% d is c ont i nuo us gr adi ent s . […] 9 % int er f ac e. […]
HE K29 3 cel l s. Immort alize d huma n embry onic ki dney ce lls HE K 293 w ere gro wn i n DM EM wit hout py r uv at e wit h 4. 5 g L-1 of D-gluc os e, F B S , and penic ill in/ s t r ept om y c i n

[5] = Photostability under continuous light irradiation; format: physicochemical; conditions: 50 µM, buffer, 37°C, continuous irradiation (Xe lamp, 20 W), λexc 450 nm, λem 510 nm, n=6
Experimental: as §1, §2, §3

Chemical stability on storage (in words) [1]: chemical stability for long‐term storage
Stability (purity by HPLC-MS) ([2]; 2% N2H4 in DMF, 60 min): > 95%
Stability (purity by HPLC-MS) ([2]; 95% TFA, 2.5% DTT, 60 min, DCM): > 95%
Stability (purity by HPLC-MS) ([2]; 95% TFA, 2.5% H2O, 60 min, DCM): > 95%
Stability (purity by HPLC-MS) ([2]; 95% TFA, 2.5% TIS, 60 min, DCM): > 95%
Stability (purity by HPLC-MS) ([2]; 95% TFA, 5 min, DCM): > 95%
Stability in TFA (in words) ([2]; 95% TFA, 1 h): fully resistant to TFA even after 1 h
Stability (purity by HPLC-MS) ([2]; 95% TFA, 60 min, DCM): > 95%
Stability (purity by HPLC-MS) ([2]; I2 (5 eq) in MeOH, 60 min): 6%
Stability (purity by HPLC-MS) ([2]; Pd(PPh3)4 (0.1 eq), PhSiH3 (10 eq), 60 min, DCM): > 95%
Chemical stability (HPLC-MS) ([2]; Supplementary Table 2 entry A: 1% TFA, 2.5% DTT, 1 h): > 95%
Chemical stability (HPLC-MS) ([2]; Supplementary Table 2 entry B: 5% TFA, 2.5% DTT, 1 h): > 95%
Chemical stability (HPLC-MS) ([2]; Supplementary Table 2 entry C: 95% TFA, 2.5% DTT, 5 min): > 95%
Chemical stability (HPLC-MS) ([2]; Supplementary Table 2 entry D: 20% piperidine: DMF, 5 min): > 93%
Chemical stability (HPLC-MS) ([2]; Supplementary Table 2 entry E: 5% NaHCO3 (aq), 1 h): > 95%
Chemical stability (HPLC-MS) ([2]; Supplementary Table 2 entry F: 5% Na2CO3 (aq), 1 h): > 95%
Chemical stability (HPLC-MS) ([2]; Supplementary Table 2 entry G: 1% DIPEA: DMF, 1 h): > 95%
Chemical stability (HPLC-MS) ([2]; Supplementary Table 2 entry H: 0.1 M HOBt: TFE, 1 h): > 95%
Stability (purity by HPLC-MS) ([2]; TBAF (3 eq), 60 min, DCM): > 95%
Stability to iodine (in words) ([2]; presence of iodine): degraded in the presence of iodine
Solubility (in words) [3]: suitable solubility
Absorbance maximum wavelength [4]: 500 nm
Emission maximum wavelength [4]: 515 nm
Extinction coefficient ([4]; in EtOH, optical density at 500 nm, n=6, fit to Beer's law): 87,680 M-1cm-1
SMILES: CC1=CC(C)=[N+]2C1=C(c1cccc(-c3[nH]c4ccccc4c3C[C@H](NC(=O)OCC3c4ccccc4-c4ccccc43)C(=O)O)c1)c1c(C)cc(C)n1[B-]2(C#N)C#N [Trp-BODIPY PLUS]
Photostability (in words) [5]: suitable solubility and photo‐ and chemical stability for long‐term storage

— publication PMC10947197, “Acid‐Resistant BODIPY Amino Acids for Peptide‐Based Fluorescence Imaging of GPR54 Receptors in Pancreatic Islets” (Angewandte Chemie (International Ed. in English), 2023)
